This is an account of results in US10167257B2, “Indole derivatives for use in medicine” (IOmet Pharma Ltd., priority 2014, dated 2019).

One test concerns the target T1, TDO (A172 cells) (Homo sapiens, UniProt P48775).
T1 construct: This assay utilised cancer cells which expressed either TDO or IDO; host or cells: A172 human glioblastoma cells
The experiment in a line: TDO cell-based assay (A172), kynurenine production. Conditions: A172 human glioblastoma cells, 500 μM L-Trp, 48 h, kynurenine by absorbance at 490 nm. The essentials:
(§1)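 SKOV-3 cells (IDO, induced with 500 ng/ml IFNγ) or A172 glioblastoma cells (TDO) were incubated with compound and 500 μM L-Trp for 48 h at 37 °C in phenol-red-free RPMI with dialysed serum. Supernatant kynurenine was measured with 1% Ehrlich's reagent as absorbance at 490 nm.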

For the next test, the target named is T2, IDO (SKOV-3 cells) (Homo sapiens, UniProt P14902).
T2 construct: This assay utilised cancer cells which expressed either TDO or IDO; host or cells: SKOV-3 ovary adenocarcinoma cells, IFNγ-induced
T2 sequence (P14902 whole entry): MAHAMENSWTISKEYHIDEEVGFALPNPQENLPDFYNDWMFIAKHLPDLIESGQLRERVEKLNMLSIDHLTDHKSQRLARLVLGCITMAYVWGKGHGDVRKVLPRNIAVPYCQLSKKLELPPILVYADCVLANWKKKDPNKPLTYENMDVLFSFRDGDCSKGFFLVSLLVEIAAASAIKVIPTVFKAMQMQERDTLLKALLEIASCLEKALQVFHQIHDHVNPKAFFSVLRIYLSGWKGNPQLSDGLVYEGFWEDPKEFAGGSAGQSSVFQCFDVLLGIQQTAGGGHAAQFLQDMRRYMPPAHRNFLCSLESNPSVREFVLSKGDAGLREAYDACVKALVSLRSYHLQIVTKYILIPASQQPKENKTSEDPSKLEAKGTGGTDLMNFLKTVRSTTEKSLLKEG
The experiment in a line: IDO cell-based assay (SKOV-3, IFNγ-induced), kynurenine production. To be noted: SKOV-3 ovary adenocarcinoma cells, IFNγ 500 ng/ml, 500 μM L-Trp, 48 h, kynurenine by absorbance at 490 nm. The essentials:
as §1

T1 sequence (P48775 whole entry): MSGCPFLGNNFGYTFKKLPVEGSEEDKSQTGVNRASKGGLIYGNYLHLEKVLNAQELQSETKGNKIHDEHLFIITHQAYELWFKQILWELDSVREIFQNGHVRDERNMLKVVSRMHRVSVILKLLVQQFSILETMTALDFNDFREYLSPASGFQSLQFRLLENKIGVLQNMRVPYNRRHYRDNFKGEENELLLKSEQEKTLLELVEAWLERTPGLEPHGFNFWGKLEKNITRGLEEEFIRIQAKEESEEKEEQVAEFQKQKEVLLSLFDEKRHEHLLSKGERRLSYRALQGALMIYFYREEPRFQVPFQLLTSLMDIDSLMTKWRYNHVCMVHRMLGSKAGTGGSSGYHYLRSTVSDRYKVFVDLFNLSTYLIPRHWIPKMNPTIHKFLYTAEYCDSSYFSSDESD

For `CC(NC(=O)c1cc2cc(Cl)ccc2[nH]1)c1ccn(-c2ccccc2)n1` (centres unmarked) [Compound 173], the “TDO cellular assay (A172) pIC50” value at TDO (A172 cells) was “− (− = pIC50 <4.50)”. Also, the “IDO cellular assay (SKOV3) pIC50” value at IDO (SKOV-3 cells) is “+++ (+++ = pIC50 ≥5.50)”.
For `CC(NC(=O)c1cc2cc(F)ccc2[nH]1)c1ccccc1` (centres unmarked) [Compound 4] the same measures were “+ (+ = pIC50 4.50-<5.00)” and “++ (++ = pIC50 5.00-<5.50)”.
Consider `CC(NC(=O)c1cc2ccccc2[nH]1)c1ccc(Cl)cc1` (centres unmarked) [Compound 16], for which the “TDO cellular assay (A172) pIC50” value on TDO (A172 cells) was “+ (+ = pIC50 4.50-<5.00)”. For the same molecule, the “IDO cellular assay (SKOV3) pIC50” value at IDO (SKOV-3 cells) is reported as “+++ (+++ = pIC50 ≥5.50)”.
For `COc1ccc(CNC(=O)c2cc3cc(F)ccc3[nH]2)cc1` [Compound 29] the same measures were “− (− = pIC50 <4.50)” and “+ (+ = pIC50 4.50-<5.00)”.
For `CC(C)C(C)NC(=O)c1cc2cc(Cl)ccc2[nH]1` (centres unmarked) [Compound 71] the same measures were “+ (+ = pIC50 4.50-<5.00)” and “+++ (+++ = pIC50 ≥5.50)”.
For `C[C@@H](NC(=O)c1nc2ccccc2o1)c1ccccc1` [Compound 73] the same measures were “− (− = pIC50 <4.50)” and “+ (+ = pIC50 4.50-<5.00)”.
Turning to `C[C@H](NC(=O)c1cc2cc(Cl)ccc2[nH]1)c1ccc(Cl)cc1` [Compound 75], on TDO (A172 cells), the “TDO cellular assay (A172) pIC50” value is given as “− (− = pIC50 <4.50)”. Further, the “IDO cellular assay (SKOV3) pIC50” value on IDO (SKOV-3 cells) was “+++ (+++ = pIC50 ≥5.50)”.
For `CC(NC(=O)c1cc2ccc(C(N)=O)cc2[nH]1)c1ccccc1` (centres unmarked) [Compound 89] the same measures were “+++ (+++ = pIC50 ≥5.50)” and “− (− = pIC50 <4.50)”.
On the same counts, the results for `Cc1noc(C(C)NC(=O)c2cc3cc(C#N)ccc3[nH]2)n1` (centres unmarked) [Compound 221] are “− (− = pIC50 <4.50)” and “+ (+ = pIC50 4.50-<5.00)”.
For `COc1ccc2[nH]c(C(=O)NC3(c4ccccc4)CC3)cc2c1` [Compound 182] the same measures were “− (− = pIC50 <4.50)” and “+++ (+++ = pIC50 ≥5.50)”.
With `O=C(NC1(c2ccccc2)CC1)c1cc2cc(Br)ccc2[nH]1` [Compound 253], the “TDO cellular assay (A172) pIC50” value at TDO (A172 cells) is on record as “− (− = pIC50 <4.50)”. Moreover, the “IDO cellular assay (SKOV3) pIC50” value on IDO (SKOV-3 cells) is “+++ (+++ = pIC50 ≥5.50)”.
On the same counts, the results for `O=C(Nc1cccc2[nH]ncc12)c1cc2cc(F)ccc2[nH]1` [Compound 1] are “− (− = pIC50 <4.50)” and “++ (++ = pIC50 5.00-<5.50)”.
For `COc1ccc2[nH]c(C(=O)NC3(c4ccccc4)COC3)cc2c1` [Compound 178] the same measures were “− (− = pIC50 <4.50)” and “+++ (+++ = pIC50 ≥5.50)”.
On the same counts, the results for `CC(NC(=O)c1cc2cc(Cl)cnc2[nH]1)c1cnn(C)c1` (centres unmarked) [Compound 165] are “− (− = pIC50 <4.50)” and “+ (+ = pIC50 4.50-<5.00)”.
For `Cc1cc(C)c2cc(C(=O)NCc3ccc(C)n3C)[nH]c2c1` [Compound 20], the “TDO cellular assay (A172) pIC50” value on TDO (A172 cells) is on record as “− (− = pIC50 <4.50)”. The “IDO cellular assay (SKOV3) pIC50” value on IDO (SKOV-3 cells) is on record as “+ (+ = pIC50 4.50-<5.00)”.
On the same counts, the results for `Cn1cc(C2(NC(=O)c3cc4cc(Br)ccc4[nH]3)COC2)cn1` [Compound 238] are “− (− = pIC50 <4.50)” and “+++ (+++ = pIC50 ≥5.50)”.
On the same counts, the results for `CC(NC(=O)c1cc2cc(C(F)(F)F)ccc2[nH]1)c1cnn(C)c1` (centres unmarked) [Compound 157] are “− (− = pIC50 <4.50)” and “++ (++ = pIC50 5.00-<5.50)”.
On the same counts, the results for `COc1ccc(-c2noc(CNC(=O)c3cc4cc(Cl)ccc4[nH]3)n2)cc1OC` [Compound 113] are “− (− = pIC50 <4.50)” and “+++ (+++ = pIC50 ≥5.50)”.
On to `Cc1cc(C(C)NC(=O)c2cc3cc(Cl)ccc3[nH]2)no1` (centres unmarked) [Compound 234], for which, on TDO (A172 cells), the “TDO cellular assay (A172) pIC50” value is “++ (++ = pIC50 5.00-<5.50)”. Also, at IDO (SKOV-3 cells), the “IDO cellular assay (SKOV3) pIC50” value is “+++ (+++ = pIC50 ≥5.50)”.
On the same counts, the results for `CC(NC(=O)c1cc2cc(Cl)cc(F)c2[nH]1)c1cnn(C)c1` (centres unmarked) [Compound 202] are “− (− = pIC50 <4.50)” and “+++ (+++ = pIC50 ≥5.50)”.
For `O=C(NC1(c2cnn(-c3ccccc3)c2)CC1)c1cc2cc(Cl)ccc2[nH]1` [Compound 151] the same measures were “− (− = pIC50 <4.50)” and “+++ (+++ = pIC50 ≥5.50)”.
On the same counts, the results for `CC(C)NC(=O)c1cc2cc(Cl)ccc2[nH]1` [Compound 67] are “++ (++ = pIC50 5.00-<5.50)” and “+ (+ = pIC50 4.50-<5.00)”.
With `CNC(=O)c1ccc2[nH]c(C(=O)NC(C)c3ccccc3)cc2c1` (centres unmarked) [Compound 106], the “TDO cellular assay (A172) pIC50” value on TDO (A172 cells) is “− (− = pIC50 <4.50)”. For the same molecule, the “IDO cellular assay (SKOV3) pIC50” value at IDO (SKOV-3 cells) was “+ (+ = pIC50 4.50-<5.00)”.
Take `O=C(NCc1cccs1)c1cc2ccccc2[nH]1` [Compound 13]: at TDO (A172 cells), the “TDO cellular assay (A172) pIC50” value is given as “− (− = pIC50 <4.50)”. Besides, the “IDO cellular assay (SKOV3) pIC50” value at IDO (SKOV-3 cells) was “+ (+ = pIC50 4.50-<5.00)”.
On to `Cc1nc(C2(NC(=O)c3cc4cc(C#N)ccc4[nH]3)CC2)co1` [Compound 226], for which the “TDO cellular assay (A172) pIC50” value at TDO (A172 cells) was “− (− = pIC50 <4.50)”. Further, the “IDO cellular assay (SKOV3) pIC50” value at IDO (SKOV-3 cells) is “+++ (+++ = pIC50 ≥5.50)”.
As to `Cn1cc(C2(NC(=O)c3cc4cc(Br)ccc4[nH]3)CCC2)cn1` [Compound 268], the “TDO cellular assay (A172) pIC50” value on TDO (A172 cells) is “− (− = pIC50 <4.50)”. On IDO (SKOV-3 cells), the “IDO cellular assay (SKOV3) pIC50” value was “+++ (+++ = pIC50 ≥5.50)”.
On the same counts, the results for `COCCn1cc(C(C)NC(=O)c2cc3cc(C#N)ccc3[nH]2)cn1` (centres unmarked) [Compound 197] are “− (− = pIC50 <4.50)” and “+ (+ = pIC50 4.50-<5.00)”.
For `Cc1ncc(C(C)NC(=O)c2cc3cc(C#N)ccc3[nH]2)o1` (centres unmarked) [Compound 229] the same measures were “+++ (+++ = pIC50 ≥5.50)” and “+++ (+++ = pIC50 ≥5.50)”.
On the same counts, the results for `C[C@@H](NC(=O)c1cc2ccc(Cl)cc2[nH]1)c1ccccc1` [Compound 47] are “++ (++ = pIC50 5.00-<5.50)” and “++ (++ = pIC50 5.00-<5.50)”.
As to `CC(NC(=O)c1cc2cc(Cl)ccc2[nH]1)c1nc(-c2ccccc2)no1` (centres unmarked) [Compound 121], the “TDO cellular assay (A172) pIC50” value on TDO (A172 cells) is reported as “− (− = pIC50 <4.50)”. Also, the “IDO cellular assay (SKOV3) pIC50” value at IDO (SKOV-3 cells) was “+++ (+++ = pIC50 ≥5.50)”.
On the same counts, the results for `O=C(NC(c1ccccc1)C1CC1)c1cc2cc(Cl)ccc2[nH]1` (centres unmarked) [Compound 99] are “+ (+ = pIC50 4.50-<5.00)” and “+++ (+++ = pIC50 ≥5.50)”.
For `CC(=O)N1CCC(C2(NC(=O)c3cc4cc(Cl)ccc4[nH]3)CC2)CC1` [Compound 160] the same measures were “− (− = pIC50 <4.50)” and “+++ (+++ = pIC50 ≥5.50)”.
On the same counts, the results for `Cn1cc(C2(NC(=O)c3cc4cc(Cl)ccc4[nH]3)CCOCC2)cn1` [Compound 266] are “− (− = pIC50 <4.50)” and “+++ (+++ = pIC50 ≥5.50)”.
For `COc1cccc(-n2cc(CNC(=O)c3cc4cc(Cl)ccc4[nH]3)cn2)c1` [Compound 112], the “TDO cellular assay (A172) pIC50” value on TDO (A172 cells) is reported as “− (− = pIC50 <4.50)”. Also, the “IDO cellular assay (SKOV3) pIC50” value on IDO (SKOV-3 cells) was “+++ (+++ = pIC50 ≥5.50)”.
On the same counts, the results for `COc1ccc(-n2cc(C(C)NC(=O)c3cc4cc(Cl)ccc4[nH]3)cn2)cc1OC` (centres unmarked) [Compound 207] are “+ (+ = pIC50 4.50-<5.00)” and “+++ (+++ = pIC50 ≥5.50)”.
On the same counts, the results for `COc1ccc2cc(C(=O)NC(C)c3cnn(C)c3)[nH]c2c1` (centres unmarked) [Compound 166] are “− (− = pIC50 <4.50)” and “+ (+ = pIC50 4.50-<5.00)”.
On the same counts, the results for `N#Cc1ccc2[nH]c(C(=O)NC3(c4ccc(F)cc4)CC3)cc2c1` [Compound 137] are “− (− = pIC50 <4.50)” and “+++ (+++ = pIC50 ≥5.50)”.
As for `CC(NC(=O)c1cc2cc(Cl)ccc2[nH]1)c1ccc(OCCN(C)C)cc1` (centres unmarked) [Compound 102], the “TDO cellular assay (A172) pIC50” value at TDO (A172 cells) is on record as “− (− = pIC50 <4.50)”. Further, the “IDO cellular assay (SKOV3) pIC50” value at IDO (SKOV-3 cells) is recorded as “+ (+ = pIC50 4.50-<5.00)”.
On the same counts, the results for `Cn1cc(C2(NC(=O)c3cc4ccc(C(F)F)cc4[nH]3)CC2)cn1` [Compound 206] are “− (− = pIC50 <4.50)” and “+ (+ = pIC50 4.50-<5.00)”.
On the same counts, the results for `Cc1nnc(C2(NC(=O)c3cc4cc(Cl)ccc4[nH]3)CC2)[nH]1` [Compound 233] are “− (− = pIC50 <4.50)” and “+ (+ = pIC50 4.50-<5.00)”.
For `C[C@@H](NC(=O)c1cc2c([nH]1)CCCC2)c1ccccc1` [Compound 53] the same measures were “− (− = pIC50 <4.50)” and “+ (+ = pIC50 4.50-<5.00)”.
Take `CC(NC(=O)c1cc2cc(Cl)ccc2[nH]1)c1ncc[nH]1` (centres unmarked) [Compound 96]: the “TDO cellular assay (A172) pIC50” value at TDO (A172 cells) is “− (− = pIC50 <4.50)”. Moreover, the “IDO cellular assay (SKOV3) pIC50” value at IDO (SKOV-3 cells) is on record as “+ (+ = pIC50 4.50-<5.00)”.
For `CC(Cc1ccccc1)NC(=O)c1cc2cc(Cl)ccc2[nH]1` (centres unmarked) [Compound 86] the same measures were “+++ (+++ = pIC50 ≥5.50)” and “+++ (+++ = pIC50 ≥5.50)”.
